Laboratory results: article PMC8509773, “3-Pyridinylidene Derivatives of Chemically Modified Lupane and Ursane Triterpenes as Promising Anticancer Agents by Targeting Apoptosis” (International Journal of Molecular Sciences, 2021)
“Also recorded” adds a separate entry of the source. Marks after values point to notes of the source that are not given here.

How the values were obtained:
1BR3 human fibroblasts = assay: MTT cytotoxicity assay for healthy human cells; type: cell-based; conditions: 1BR3 healthy cells, 48 h
Method: (§1) The in vitro cytotoxicity was determined by means of (4,5-dimethylthiazol-2-yl)-2,5-diphenyltetrazolium bromide (MTT) method. In brief, HaCaT, 1BR3 cells were seeded in 96-well plates at an initial density of […] and allowed to attach. Next, the old medium was removed and a fresh one was added containing five concentrations (100 µM, 10 µM, 1 µM, 0.1 µM, and 0.01 µM) of the tested compounds 6 and 7 after which cells were incubated for 48 h. The control cells were treated with the same amount of DMSO, the highest concentration of DMSO present in the medium being 0.5%. A volume of […] MTT reagent (5 mg/mL) was added in each well. During a 4 h contact period, the intact mitochondrial reductase converted and precipitated MTT as blue crystals. The precipitated crystals were dissolved in […] of lysis solution provided by the manufacturer (Sigma-Aldrich). Finally, the reduced MTT was spectrophotometrically analyzed at 570 nm, using a microplate reader (xMark Microplate Spectrophotometer, Bio-Rad, Hercules, CA, USA). GI50 was calculated for each healthy cell line.

[1] = tested on: HaCaT—human keratinocytes; assay: MTT cytotoxicity assay for healthy human cells; type: cell-based; conditions: 48 h
Method: as §1

Bcl-2 gene [2] = assay: rtPCR gene expression in A375 cells; type: cell-based, human
Excerpt: (§2) We applied rtPCR techniques in order to investigate the effect of our two compounds on the anti-apoptotic Bcl-XL and Bcl-2 genes as well as the proapoptotic Bak and Bad genes (Table 4). […] Therefore, we may presume that the apoptotic mechanism of both compounds against the A375 cells is not mediated by the tested genes or that alterations in their ratio are the underlying mechanism.

Bcl-XL gene [3] = assay: rtPCR gene expression in A375 cells; type: cell-based, human
Excerpt: as §2

Bak gene [4] = assay: rtPCR gene expression in A375 cells; type: cell-based, human
Excerpt: as §2

Bad gene [5] = assay: rtPCR gene expression in A375 cells; type: cell-based, human
Excerpt: as §2

Bcl-2 gene [6] = assay: rtPCR gene expression in Sk-Mel-28 cells; type: cell-based, human
chorioallantoic membrane [7] = assay: HET-CAM irritation assay; conditions: for Irritation Score: 5 min
Excerpt: HET-CAM assay was used in order to assess the toxicity of compounds 6 and 7 (Figure 16); the procedure is a low-cost, unique model in biomedical research that allows the testing of the irritation potency of chemical compounds while simultaneously avoiding in vivo experiments. […] The Luepke scale was used to establish the irritation score: 0–0.9 indicates non-irritant, 1–4.9 indicates weakly irritant, 5–8.9 indicates moderately irritant, and 9–21 means strongly irritant.
Compounds 6 and 7 were also evaluated in terms of biocompatibility on mucosal tissues by using the in vivo Hen’s Egg Chorioallantoic Membrane Test (HET-CAM assay). The assay assesses a potential irritant effect on the vascular plexus of the chorioallantoic membrane. The HET-CAM method was carried out following ICCVAM recommendations published in November 2016 in Appendix G and adapted to our laboratory conditions. Thus, 300 µL of control or test solution, respectively, was applied on CAM and the alterations induced at the CAM level were monitored by means of stereomicroscopy (Discovery 8 Stereomicroscope, Zeiss), registering significant images (Axio CAM 105 color, Zeiss), before the application and after 5 min contact with the samples. All images were processed using Zeiss ZEN software, Gimp 2.8 and ImageJ software. Negative control was represented by distilled water and solvent control DMSO 0.5%, while the positive control by the sodium lauryl sulphate (SLS) 0.5% in distillate water. The test substances were tested in concentrations of 1 µM. The observation time of the produced reactions was 5 min (300 s) and the time, at which the occurrence of a particular reaction took place was recorded in seconds. Finally, the following reactions were monitored: hemorrhage—H (blood vessel bleeding), vascular lysis —L (disintegration of blood vessels), and coagulation —C (intra or extra- vascular protein denaturizing). A variety of analysis methods may be used to assess irritancy potential of test substances. One analysis method that has been used extensively used is an irritation score (IS) calculated according to the following formula: IS=5×301−SecH/300+[…]/300+9×301−SecC/300 where H = hemorrhage; L = vessel lysis; C = coagulation; Hemorrhage time (Sec H) = onset of hemorrhage reactions on CAM (in sec); Lysis time (Sec L) = onset of vessel lysis on CAM (in sec); Coagulation time (Sec C) = onset of coagulation formation on CAM (in sec). The formula comprises a factor indicating the impact of the observed effect on vascular damage, e.g., coagulation has the highest impact expressed by the multiplication factor 9. The IS values range on a scale between 0 and 21.

Bad gene [8] = assay: rtPCR gene expression in Sk-Mel-28 cells; type: cell-based, human
Bcl-2 gene [9] = assay: rtPCR gene expression in RPMI cells; type: cell-based, human
chorioallantoic membrane [10] = assay: Chorioallantoic membrane (CAM) angiogenesis assay; type: in vivo, chicken; conditions: 1 µM in 0.5% DMSO, applied daily for 72 h
Method: The potential effects of compounds 6 and 7 on the angiogenesis process were investigated using the chorioallantoic membrane (CAM) assay which uses fertilized chicken eggs, incubated at 37 °C, under controlled humidity. On the third day of incubation (embryonic day 3 of development, EDD 3), a small opening was made at one end of the eggs and 5–6 mL of albumen was removed, thus facilitating the separation of the chorioallantoic membrane. On EDD 4, a window was cut on the upper side of the egg and subsequently resealed, returning the specimens to the incubator. On EDD 7 (0 h), 10 µL of each test solution was administered inside a plastic ring previously applied on the intensely vascularized surface of the CAM [75, 76]. […] All samples were applied daily in the same volume for 72 h. For each analyzed sample, 5 eggs were used, and all samples were applied in triplicate. Macroscopic evaluation was daily performed in ovo by means of stereomicroscopy (ZEISS SteREO Discovery.V8, Göttingen, Germany) and all images were registered and processed by Axiocam 105 color, AxioVision SE64. Rel. 4.9.1 Software, (ZEISS Göttingen, Germany), ImageJ (ImageJ Version 1.50e, https://imagej.nih.gov/ij/index.html, accessed on 12 May 2021) and GIMP software (GIMP v 2.8, https://www.gimp.org/, accessed on 12 May 2021).

Bcl-XL gene [11] = assay: rtPCR gene expression in Sk-Mel-28 cells; type: cell-based, human
Excerpt: as §2

Bak gene [12] = assay: rtPCR gene expression in Sk-Mel-28 cells; type: cell-based, human
Excerpt: as §2

Row | Compound | GI50 (1BR3 human fibroblasts) [µM] | GI50 (1BR3 human fibroblasts; Homo sapiens, Fibroblast) [µM] | GI50 [1] [µM] | GI50 ([1]; Homo sapiens, HaCaT) [µM] | Bcl-2 gene expression, Mean (Bcl-2 gene [2]) | Bcl-XL gene expression, Mean (Bcl-XL gene [3]) | Bak gene expression, Mean (Bak gene [4]) | Bad gene expression, Mean (Bad gene [5]) | Bcl-2 gene expression, Mean (Bcl-2 gene [6]) | Bad gene expression, Mean (Bad gene [8]) | Bcl-2 gene expression, Mean (Bcl-2 gene [9]) | Effect on the normal angiogenic process (chorioallantoic membrane [10]) | Bcl-XL gene expression, Mean (Bcl-XL gene [11]) | Bak gene expression, Mean (Bak gene [12]) | other results
1 | C[C@H]1[C@@H]2[C@H]3CC[C@@H]4[C@@]5(C)C/C(=C\c6cccnc6)C(=O)C(C)(C)[C@@H]5CC[C@@]4(C)[C@]3(C)CC[C@]23CO[C@@]1(C)[C@@H](C(=O)/C=C/c1cccnc1)C3 [Compound 6, 3-Oxo-2-(3-pyridinylidene)-21-[3-(2E-pyridinyl)-prop-2-en-1-one]-20β,28-epoxy-18α,19βH-ursane] | 23.1 | > 15 | 18.6 | > 15 | 2.570 | 0.286 * | downregulated | downregulated | 0.200 * | 15.716 ** | 0.246 ** | only slightly affected angiogenesis | 1.606 | 22.826 *** | Bak gene expression, Mean (Bak gene [4]; listed as compound 6): 0.546 ***; Bad gene expression, Mean (Bad gene [5]; listed as compound 6): 0.150 *; Irritation Score (chorioallantoic membrane [7]; HET-CAM, 300 µL, 1 µM test compounds, scale 0–21): 0; Type of Effect (chorioallantoic membrane [7]; HET-CAM, Luepke scale): Non irritant
2 | COC(=O)[C@]12CC[C@@H](C(=O)/C=C/c3cccnc3)[C@@H]1[C@H]1CC[C@@H]3[C@@]4(C)C/C(=C\c5cccnc5)C(=O)C(C)(C)[C@@H]4CC[C@@]3(C)[C@]1(C)CC2 [Compound 7, methyl 2,30-bis-(3-pyridinylidene)-3,20-dioxo-lup-28-oate] | 20.9 | > 15 | 15.4 | > 15 | upregulation | upregulation | upregulation | upregulation | 0.210 * | 65.946 *** | 0.313 | did not interfere with the normal angiogenic process; also recorded: does not influence the angiogenic process | 3.826 | 59.543 ** | Bcl-2 gene expression, Mean (Bcl-2 gene [2]; listed as compound 7): 81.120 ***; Bcl-XL gene expression, Mean (Bcl-XL gene [3]; listed as compound 7): 28.893 **; Bak gene expression, Mean (Bak gene [4]; listed as compound 7): 17.743 ***; Bad gene expression, Mean (Bad gene [5]; listed as compound 7): 155.433 *; Irritation Score (chorioallantoic membrane [7]; chicken, in vivo, 1 µM): 0; Type of Effect (chorioallantoic membrane [7]; in vivo): Non irritant
